Reference: ChEMBL document CHEMBL1201862, “PubChem BioAssay data set” (2004)
Values belong to the compound of their own block, whether it stands above or below them. Calls of active or inactive are those of the source.

Tests used:
[1] = biological target: Dual specificity protein phosphatase 3 (Homo sapiens, UniProt P51452); experiment: VHR1 phosphatase inhibitors, biochemical (AID 1878)
[2] = biological target: Mitogen-activated protein kinase 13 (Homo sapiens, UniProt O15264); type: functional
[3] = biological target: Serine/threonine-protein kinase Chk1 (Homo sapiens, UniProt O14757); type: functional;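 further: measured as one member of a kinome-wide kinase profiling panel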
[4] = biological target: Serine/threonine-protein kinase PAK 1 (Homo sapiens, UniProt Q13153); type: functional
[5] = biological target: Serine/threonine-protein kinase 3 (Homo sapiens, UniProt Q13188); type: functional;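 further: measured as one member of a kinome-wide kinase panel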
[6] = biological target: Mitogen-activated protein kinase kinase kinase kinase 5 (Homo sapiens, UniProt Q9Y4K4); type: functional;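 further: measured as one member of a kinome-spanning kinase panel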
[7] = biological target: Serine/threonine-protein kinase PAK 4 (Homo sapiens, UniProt O96013); type: functional;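 further: value obtained within a kinome profiling panel in which PAK4 was one of the panel members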
[8] = biological target: Serine/threonine-protein kinase 17A (Homo sapiens, UniProt Q9UEE5); type: functional
[9] = biological target: Serine/threonine-protein kinase PLK4 (Homo sapiens, UniProt O00444); type: functional;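 further: PLK4 measured as one member of a kinome-wide kinase profiling panel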
[10] = biological target: STE20-like serine/threonine-protein kinase (Homo sapiens, UniProt Q9H2G2); type: functional
[11] = biological target: Calcium/calmodulin-dependent protein kinase type 1 (Homo sapiens, UniProt Q14012); type: functional
[12] = biological target: Tyrosine-protein kinase JAK2 (Homo sapiens, UniProt O60674); type: functional;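 further: JAK2 tested as one member of a kinase panel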
[13] = biological target: Serine/threonine-protein kinase D3 (Homo sapiens, UniProt O94806); type: functional;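 further: determined within a kinase panel screen, with PRKCN as the panel member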
[14] = biological target: Serine/threonine-protein kinase MRCK alpha (Homo sapiens, UniProt Q5VT25); type: functional
Activin receptor type-1 = Activin receptor type-1 (Homo sapiens, UniProt Q04771); experiment: Navigating the Kinome. Panel member name: ACVR1; type: functional
[15] = biological target: Dual specificity protein kinase CLK2 (Homo sapiens, UniProt P49760); type: functional
[16] = biological target: MAP/microtubule affinity-regulating kinase 3 (Homo sapiens, UniProt P27448); type: functional;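 further: MARK3 affinity measured as one member of a kinome panel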
[17] = biological target: Serine/threonine-protein kinase TAO1 (Homo sapiens, UniProt Q7L7X3); type: functional
[18] = biological target: Ribosomal protein S6 kinase beta-1 (Homo sapiens, UniProt P23443); type: functional;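 further: measured as one member of a kinome-wide profiling panel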
[19] = biological target: Tyrosine-protein kinase Lck (Homo sapiens, UniProt P06239); type: functional;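 further: lck was assayed as one member of a kinase panel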
[20] = biological target: RAC-alpha serine/threonine-protein kinase (Homo sapiens, UniProt P31749); type: functional;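 further: AKT1 affinity measured as one member of a kinome-wide kinase profiling panel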
[21] = biological target: Interleukin-1 receptor-associated kinase 4 (Homo sapiens, UniProt Q9NWZ3); type: functional
[22] = biological target: Megakaryocyte-associated tyrosine-protein kinase (Homo sapiens, UniProt P42679); type: functional;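 further: affinity measured as one member of a kinase panel (Navigating the Kinome) against MATK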
[23] = biological target: Serine/threonine-protein kinase BRSK1 (Homo sapiens, UniProt Q8TDC3); type: functional;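 further: measured within a kinome-wide kinase panel, with the target listed as KIAA1811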
[24] = cytotoxicity in melanoma parental cells – cell-based, CellTiter-Glo, dry powder, set 6, MITF inhibitor project, dose response (AID 624429); type: functional; conditions: SK-MEL-5
[25] = biological target: T1, Microphthalmia-associated transcription factor (Homo sapiens, UniProt O75030); experiment: reducers of TRPM1 reporter luminescence, concentration series – cell-based, SK-MEL-5, cherry-picked, set 3, MITF inhibitor project, dose response (AID 493073); type: functional;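 further: SK-MEL-5 melanoma cells with luciferase driven by the MITF target TRPM1 promoter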
T1 sequence (O75030 whole entry): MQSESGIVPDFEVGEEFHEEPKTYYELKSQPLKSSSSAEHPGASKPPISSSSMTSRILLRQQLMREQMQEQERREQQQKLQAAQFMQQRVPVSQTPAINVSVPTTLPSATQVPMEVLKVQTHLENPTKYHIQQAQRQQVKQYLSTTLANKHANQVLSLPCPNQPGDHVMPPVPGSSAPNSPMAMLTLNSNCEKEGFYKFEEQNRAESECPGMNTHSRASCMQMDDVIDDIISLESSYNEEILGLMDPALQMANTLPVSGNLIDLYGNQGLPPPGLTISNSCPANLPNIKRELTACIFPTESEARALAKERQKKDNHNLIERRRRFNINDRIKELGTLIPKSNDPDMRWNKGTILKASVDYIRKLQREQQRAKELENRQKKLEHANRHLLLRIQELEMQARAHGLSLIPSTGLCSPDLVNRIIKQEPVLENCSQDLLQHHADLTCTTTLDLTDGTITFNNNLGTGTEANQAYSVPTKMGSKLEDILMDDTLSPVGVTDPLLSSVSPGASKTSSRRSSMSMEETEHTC

[26] = cytotoxicity in MITF-independent A375 cells – cell-based, CellTiter-Glo luminescence, dry powder, set 9, counter-screen for MITF modulator project, dose response (AID 651591); type: functional; conditions: A-375
Orexin receptor type 2 = biological target: T2, Orexin receptor type 2 (Homo sapiens, UniProt O43614); experiment: Counterscreen assay for antagonists of the orexin 1 receptor (OX1R; HCRTR1): Fluorescence-based cell-based dose response assay for antagonists of the orexin 2 receptor (OX2R; HCRTR2), run by assay provider.; type: functional
T2 sequence (O43614 whole entry): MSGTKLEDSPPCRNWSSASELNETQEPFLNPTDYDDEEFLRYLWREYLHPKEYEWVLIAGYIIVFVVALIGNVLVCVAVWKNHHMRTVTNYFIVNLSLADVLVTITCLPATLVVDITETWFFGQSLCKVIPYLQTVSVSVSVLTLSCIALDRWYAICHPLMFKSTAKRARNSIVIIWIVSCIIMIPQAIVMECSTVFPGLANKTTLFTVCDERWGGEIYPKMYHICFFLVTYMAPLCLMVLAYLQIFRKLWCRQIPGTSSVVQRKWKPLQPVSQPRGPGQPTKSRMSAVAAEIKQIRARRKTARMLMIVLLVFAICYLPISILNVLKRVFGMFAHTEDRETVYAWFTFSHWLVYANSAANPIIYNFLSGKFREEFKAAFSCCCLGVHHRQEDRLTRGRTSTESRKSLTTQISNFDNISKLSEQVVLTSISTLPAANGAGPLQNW

[27] = viability of PTEN-deleted HCT116 cells – cell-based, HCT116 PTEN knockout, dose response (AID 1047); type: functional;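 further: HCT116 colon tumor cells with PTEN knocked out; cells exposed to compound for 60 hours before readout; potency for loss of cell viability measured by luminescence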
[28] = HPDE-C7 pancreatic duct cell viability loss – fluorescence, HTS (AID 430); type: functional, cell-based; conditions: Homo sapiens
[29] = viability loss in THP-1 monocytes – THP-1 cells, cytotoxicity control for Vif-APOBEC3G degradation inhibitor project, dose response (AID 1117359); type: functional; conditions: THP-1

Serine/threonine-protein kinase PLK4, sequence (O00444 whole entry): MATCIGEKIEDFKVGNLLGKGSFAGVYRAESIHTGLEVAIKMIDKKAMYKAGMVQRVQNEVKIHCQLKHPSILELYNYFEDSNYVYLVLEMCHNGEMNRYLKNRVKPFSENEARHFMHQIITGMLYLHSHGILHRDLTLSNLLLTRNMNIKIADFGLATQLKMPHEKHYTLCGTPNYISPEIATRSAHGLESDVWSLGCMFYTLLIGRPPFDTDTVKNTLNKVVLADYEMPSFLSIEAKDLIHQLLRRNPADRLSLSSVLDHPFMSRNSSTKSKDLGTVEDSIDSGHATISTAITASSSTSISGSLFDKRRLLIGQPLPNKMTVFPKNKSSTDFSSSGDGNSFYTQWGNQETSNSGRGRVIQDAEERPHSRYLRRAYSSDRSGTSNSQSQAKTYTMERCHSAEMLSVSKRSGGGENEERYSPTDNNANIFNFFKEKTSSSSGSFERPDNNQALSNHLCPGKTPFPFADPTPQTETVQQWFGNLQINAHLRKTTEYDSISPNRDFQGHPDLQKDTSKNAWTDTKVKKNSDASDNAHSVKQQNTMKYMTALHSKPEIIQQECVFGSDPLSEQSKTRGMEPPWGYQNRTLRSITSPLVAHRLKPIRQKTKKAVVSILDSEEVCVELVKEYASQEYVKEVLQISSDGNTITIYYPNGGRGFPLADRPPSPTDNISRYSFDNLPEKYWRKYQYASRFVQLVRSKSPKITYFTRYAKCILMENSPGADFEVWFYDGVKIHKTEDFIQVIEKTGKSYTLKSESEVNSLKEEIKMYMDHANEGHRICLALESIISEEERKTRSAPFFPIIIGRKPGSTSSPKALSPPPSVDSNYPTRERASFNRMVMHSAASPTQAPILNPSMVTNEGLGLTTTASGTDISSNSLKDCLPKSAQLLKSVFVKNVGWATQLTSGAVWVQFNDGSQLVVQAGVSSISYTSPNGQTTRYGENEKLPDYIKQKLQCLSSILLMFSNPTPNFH
Serine/threonine-protein kinase BRSK1, sequence (Q8TDC3 whole entry): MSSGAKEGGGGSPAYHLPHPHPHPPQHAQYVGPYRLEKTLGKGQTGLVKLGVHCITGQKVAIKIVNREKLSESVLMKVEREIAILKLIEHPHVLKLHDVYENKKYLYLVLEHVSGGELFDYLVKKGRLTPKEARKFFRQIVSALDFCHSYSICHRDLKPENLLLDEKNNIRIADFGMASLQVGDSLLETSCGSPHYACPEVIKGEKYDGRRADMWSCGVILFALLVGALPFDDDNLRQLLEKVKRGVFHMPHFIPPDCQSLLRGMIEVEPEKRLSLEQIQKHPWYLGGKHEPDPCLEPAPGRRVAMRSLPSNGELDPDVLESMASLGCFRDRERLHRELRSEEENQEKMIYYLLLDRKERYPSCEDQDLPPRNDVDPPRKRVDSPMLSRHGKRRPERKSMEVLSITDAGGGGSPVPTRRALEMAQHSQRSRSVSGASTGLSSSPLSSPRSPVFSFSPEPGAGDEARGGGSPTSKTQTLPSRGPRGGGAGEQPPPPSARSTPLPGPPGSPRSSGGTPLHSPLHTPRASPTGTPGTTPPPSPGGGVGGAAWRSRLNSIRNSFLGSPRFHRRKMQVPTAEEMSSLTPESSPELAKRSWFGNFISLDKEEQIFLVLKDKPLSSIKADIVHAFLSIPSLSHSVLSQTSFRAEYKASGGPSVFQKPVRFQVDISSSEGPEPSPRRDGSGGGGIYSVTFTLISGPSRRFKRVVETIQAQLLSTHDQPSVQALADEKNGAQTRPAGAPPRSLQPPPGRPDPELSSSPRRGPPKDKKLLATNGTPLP
MAP/microtubule affinity-regulating kinase 3, sequence (P27448 whole entry): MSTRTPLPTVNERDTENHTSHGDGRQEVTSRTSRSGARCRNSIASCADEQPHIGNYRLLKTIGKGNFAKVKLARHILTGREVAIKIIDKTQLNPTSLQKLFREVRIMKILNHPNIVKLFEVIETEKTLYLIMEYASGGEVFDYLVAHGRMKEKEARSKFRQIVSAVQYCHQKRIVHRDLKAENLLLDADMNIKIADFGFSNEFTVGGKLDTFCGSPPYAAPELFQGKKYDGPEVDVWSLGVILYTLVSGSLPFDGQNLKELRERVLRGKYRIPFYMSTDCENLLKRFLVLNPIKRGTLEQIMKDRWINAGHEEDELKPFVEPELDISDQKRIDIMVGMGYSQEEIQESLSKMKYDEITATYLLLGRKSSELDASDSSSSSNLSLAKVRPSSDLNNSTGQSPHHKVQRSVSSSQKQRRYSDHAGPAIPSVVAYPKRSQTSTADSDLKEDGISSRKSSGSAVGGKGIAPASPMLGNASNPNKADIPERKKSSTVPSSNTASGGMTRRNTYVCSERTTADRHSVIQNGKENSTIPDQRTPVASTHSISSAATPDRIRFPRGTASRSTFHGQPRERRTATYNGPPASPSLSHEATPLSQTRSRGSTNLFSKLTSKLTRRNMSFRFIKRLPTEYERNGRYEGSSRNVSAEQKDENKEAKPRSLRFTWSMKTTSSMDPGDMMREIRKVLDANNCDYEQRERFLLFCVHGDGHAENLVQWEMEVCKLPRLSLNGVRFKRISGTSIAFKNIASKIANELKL
Calcium/calmodulin-dependent protein kinase type 1, sequence (Q14012 whole entry): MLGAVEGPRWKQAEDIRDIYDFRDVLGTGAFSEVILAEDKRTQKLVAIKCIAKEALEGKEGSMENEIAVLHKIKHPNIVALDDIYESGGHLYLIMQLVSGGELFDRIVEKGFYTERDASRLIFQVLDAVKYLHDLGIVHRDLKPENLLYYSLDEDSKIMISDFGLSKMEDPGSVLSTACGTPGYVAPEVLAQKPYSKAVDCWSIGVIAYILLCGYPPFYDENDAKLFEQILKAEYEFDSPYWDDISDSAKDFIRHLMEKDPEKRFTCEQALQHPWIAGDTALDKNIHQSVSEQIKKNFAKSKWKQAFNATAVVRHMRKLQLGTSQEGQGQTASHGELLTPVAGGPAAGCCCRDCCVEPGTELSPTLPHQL
Serine/threonine-protein kinase D3, sequence (O94806 whole entry): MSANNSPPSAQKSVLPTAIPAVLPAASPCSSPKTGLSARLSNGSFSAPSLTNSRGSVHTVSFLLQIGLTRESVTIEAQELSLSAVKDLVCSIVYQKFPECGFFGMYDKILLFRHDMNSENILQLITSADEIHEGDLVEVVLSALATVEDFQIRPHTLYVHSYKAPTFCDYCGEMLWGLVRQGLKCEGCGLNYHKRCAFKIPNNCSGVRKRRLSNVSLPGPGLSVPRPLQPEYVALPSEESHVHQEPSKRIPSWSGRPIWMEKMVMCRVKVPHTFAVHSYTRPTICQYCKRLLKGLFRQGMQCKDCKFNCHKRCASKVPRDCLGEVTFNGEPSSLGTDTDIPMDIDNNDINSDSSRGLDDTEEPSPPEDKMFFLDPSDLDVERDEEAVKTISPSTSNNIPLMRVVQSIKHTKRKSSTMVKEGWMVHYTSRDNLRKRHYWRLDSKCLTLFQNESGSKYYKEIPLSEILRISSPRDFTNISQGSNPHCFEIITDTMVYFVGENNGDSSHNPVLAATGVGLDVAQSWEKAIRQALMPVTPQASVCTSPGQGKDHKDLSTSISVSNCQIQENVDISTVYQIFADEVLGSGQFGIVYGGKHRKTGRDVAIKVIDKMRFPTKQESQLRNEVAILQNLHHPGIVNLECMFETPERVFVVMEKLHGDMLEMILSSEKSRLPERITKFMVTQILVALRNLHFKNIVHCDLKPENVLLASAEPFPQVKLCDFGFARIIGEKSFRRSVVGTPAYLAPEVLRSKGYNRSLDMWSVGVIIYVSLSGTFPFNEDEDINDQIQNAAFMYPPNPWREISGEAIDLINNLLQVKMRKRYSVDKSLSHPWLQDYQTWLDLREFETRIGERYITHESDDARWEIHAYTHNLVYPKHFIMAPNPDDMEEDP
Mitogen-activated protein kinase 13, sequence (O15264 whole entry): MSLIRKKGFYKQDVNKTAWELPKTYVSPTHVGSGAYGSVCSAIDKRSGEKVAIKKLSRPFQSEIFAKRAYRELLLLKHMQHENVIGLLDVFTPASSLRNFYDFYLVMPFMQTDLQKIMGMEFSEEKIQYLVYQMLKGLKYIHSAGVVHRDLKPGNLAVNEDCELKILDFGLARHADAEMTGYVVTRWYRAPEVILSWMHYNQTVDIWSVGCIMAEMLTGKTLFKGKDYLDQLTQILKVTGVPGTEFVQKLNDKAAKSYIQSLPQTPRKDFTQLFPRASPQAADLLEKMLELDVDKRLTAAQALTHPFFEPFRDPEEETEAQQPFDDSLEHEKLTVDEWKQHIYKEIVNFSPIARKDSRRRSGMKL
Dual specificity protein phosphatase 3, sequence (P51452 whole entry): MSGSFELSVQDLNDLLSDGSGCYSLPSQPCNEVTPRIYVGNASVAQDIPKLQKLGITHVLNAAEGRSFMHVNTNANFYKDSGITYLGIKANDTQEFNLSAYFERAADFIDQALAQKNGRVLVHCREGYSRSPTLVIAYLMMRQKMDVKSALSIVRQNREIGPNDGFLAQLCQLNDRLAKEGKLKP
Interleukin-1 receptor-associated kinase 4, sequence (Q9NWZ3 whole entry): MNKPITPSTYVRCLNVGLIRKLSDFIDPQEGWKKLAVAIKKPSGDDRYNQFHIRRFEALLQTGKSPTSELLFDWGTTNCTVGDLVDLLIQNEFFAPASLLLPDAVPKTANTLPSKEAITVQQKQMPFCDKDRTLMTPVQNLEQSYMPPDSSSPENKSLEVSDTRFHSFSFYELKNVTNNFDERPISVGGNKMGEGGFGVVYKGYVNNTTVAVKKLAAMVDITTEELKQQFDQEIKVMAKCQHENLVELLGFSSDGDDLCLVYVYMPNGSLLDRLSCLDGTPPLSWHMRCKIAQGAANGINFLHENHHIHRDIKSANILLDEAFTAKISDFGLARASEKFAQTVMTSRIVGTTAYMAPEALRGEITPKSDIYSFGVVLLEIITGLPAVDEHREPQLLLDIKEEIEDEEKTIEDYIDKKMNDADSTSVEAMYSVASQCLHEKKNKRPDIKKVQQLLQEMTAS

SMILES: CS(=O)(=O)c1ccc2c(c1)SC1=NC(=O)/C(=C/c3ccc(O)c(O)c3)C(=N)N12
IC50 [1]: 4.57 µM (active)

Ki [2]: 0.501 µM (active)
Ki [3]: 3.98 µM (active)
Ki [4]: > 10 µM (inactive)
Ki [5]: 0.794 µM (active)
Ki [6]: 0.501 µM (active)
Ki [7]: 0.501 µM (active)
Ki [8]: 0.0501 µM (active)
Ki [9]: 0.0794 µM (active)
Ki [10]: 2 µM (active)
Ki [11]: > 1.58 µM (inactive)
Ki [12]: 0.126 µM (active)
Ki [13]: 1.58 µM (active)
Ki [14]: 6.31 µM (active)
Ki (Activin receptor type-1): 1 µM (active)
Ki [15]: 0.0631 µM (active)
Ki [16]: 0.0631 µM (active)
Ki [17]: 5.01 µM (active)
Ki [18]: 0.1 µM (active)
Ki [19]: 2.51 µM (active)
Ki [20]: 6.31 µM (active)
Ki [21]: 2.51 µM (active)
Ki [22]: > 2 µM (inactive)
Ki [23]: 1.26 µM (active)
SMILES: COc1ccc(C(=O)Nc2n[nH]c3ccc(-c4cn(Cc5ccccc5)nn4)cc23)cc1OC

SMILES: C=CCNC1=C(Cl)C(=O)c2ccccc2C1=O
AC50 [24]: 3.82 µM (active)
AC50 [25]: 4.06 µM (active)
AC50 [26]: > 70 µM (inactive)

SMILES: CN(C)c1ccc(-c2nnc(-c3cccs3)o2)cc1
IC50 (Orexin receptor type 2): > 88.8 µM (inactive)

SMILES: CCOC(=O)C(C(=O)OCC)c1cc(Br)c2noc3c2c1C(=O)c1ccccc1-3
EC50 [27]: 10.2 µM (active)
EC50 [28]: 3.03 µM (active)
CC50 [29]: 19.2 µM (active)
